Drawing on patent US20250228835A1, “PYRIDINYLOXYPYRIDINES AND RELATED COMPOUNDS AND THEIR USE IN TREATING MEDICAL CONDITIONS” (Rectify Pharmaceuticals, Inc., priority 2024, published 2025), this text covers EC50 for 38 compounds.

One experiment concerns the target T1, ABCA4 P1380L (Homo sapiens, UniProt P78363, P1380L).
T1 construct: expressed in transfected cells
Description: A4 correction dose-response assay: ABCA4 P1380L HiBit protein expression. The experiment is classed as cell-based. Particulars: HEK-293 cells stably expressing HiBit-tagged ABCA4 P1380L; 24 h treatment; top concentration 30 μM; read-out: ABCA4 P1380L EC50, Emax. The method, then: Exemplary compounds were evaluated in an A4 correction dose-response assay.
To assess activity against ABCA4 P1380L, the compounds were screened in an assay measuring protein expression, using cells transfected with cDNA encoding HiBit-tagged ABCA4 P1380L. Here we describe an assay for measuring the expression of the P1380L variant of human ABCA4 (henceforth referred to as ABCA4 P1380L) and the use of this assay to measure the efficacy of compounds to increase the expression of ABCA4 P1380L. The assay was designed to characterize the efficacy and potency of compounds to increase the expression of ABCA4 P1380L by calculating an Emax and EC50 value. […] (5% CO2, humidified). […] After the four-hour incubation period, 60 nL of DMSO solutions are transferred to the assay plate.
Dose response curves include eleven doses with the top final concentration at 30 μM in 0.3% DMSO. Liquid handling is performed with ECHO 550 Acoustic Liquid Handler (Labcyte). After addition of compound treatment, cells are incubated for 24 hours at 37° C. (5% CO2, humidified). After the 24-hour treatment, plates are allowed to equilibrate to room temperature for 10 minutes. Using Dragonfly Automated Liquid Handler (TTP LabTech), 20 μl of HiBit lytic assay reagent (Promega, product #N3040), which is prepared according to manufacturer's instructions, is added to each well. The plates are rotated at room temperature for 2 minutes and incubated for 1 hour at 25° C. before luminescent signal is acquired using an EnVision Multimode Plate Reader (PerkinElmer).

The next experiment addresses T2, ABCC6 WT (Homo sapiens, UniProt O95255).
T2 construct: expressed in transfected cells; host or cells: HEK-293 (transient, Lipofectamine 2000)
Description: ABCC6 WT assay: HiBit protein expression. Particulars: HEK-293 cells transiently expressing HiBit-tagged ABCC6 WT; 24 h treatment; top concentration 20 μM; read-out: ABCC6 WT EC50, Emax. The class given is cell-based. The text has this:
To assess activity against ABCC6, compounds were screened in an assay measuring protein expression, using cells transfected with cDNA encoding HiBit-tagged ABCC6 wild-type.
Described here is an assay for measuring the expression of the wild type of human ABCC6 (henceforth referred to as ABCC6 WT) and the use of this assay to measure the efficacy of compounds to increase the expression of ABCC6 WT. The assay was designed to characterize the efficacy and potency of compounds to increase the expression of ABCC6 WT by calculating an Emax and EC50 value. HEK-293 cells transiently expressing ABCC6 WT (HEK-293/ACC6 WT) were used for this assay and were cultured at 37° C. (5% CO2, humidified) in Dulbecco's Modified Eagle Medium (DMEM, Gibco product #11965-092) supplemented with 10% fetal bovine serum. For the assay, HEK-293 cells were transfected with […]/10 cm plate of cDNA encoding HiBit-tagged ABCC6 wild-type using Lipofectamine 2000 (Thermo Fisher, product #11668019). Twenty-four hours after transfection, the HEK-293/ACC6 WT cells were seeded in white/opaque 384-well plates (PerkinElmer, cat. No. 6007688) at 10,000 cells/well in 20 μl growth medium and allowed to settle for 4 hours at 37° C. (5% CO2, humidified). Compound serial dilutions are prepared in growth medium as ten times (10×) the final concentration and using a dilution factor of 2. After the four-hour incubation period, 2.2 μL of the 10× dilutions are transferred to the assay plate.
Dose response curves include ten doses with the top final concentration at 20 μM in 0.15% DMSO. Liquid handling is performed with an Integra mini96-tip head (INTEGRA). After addition of compound treatment, cells are incubated for 24 hours at 37° C. (5% CO2, humidified). After the 24-hour treatment, plates are allowed to equilibrate for 15 minutes at room temperature. Using Integra mini-96, 20 μl of HiBit lytic assay reagent (Promega, product #N3040), which is prepared according to manufacturer's instructions, is added to each well. The plates are rotated at room temperature for 10 minutes and luminescent signal is acquired using an EnVision Multimode Plate Reader (PerkinElmer).
Results are presented below in Table 4 for ABCC6 WT.

T1 sequence (P78363 whole entry P1380L): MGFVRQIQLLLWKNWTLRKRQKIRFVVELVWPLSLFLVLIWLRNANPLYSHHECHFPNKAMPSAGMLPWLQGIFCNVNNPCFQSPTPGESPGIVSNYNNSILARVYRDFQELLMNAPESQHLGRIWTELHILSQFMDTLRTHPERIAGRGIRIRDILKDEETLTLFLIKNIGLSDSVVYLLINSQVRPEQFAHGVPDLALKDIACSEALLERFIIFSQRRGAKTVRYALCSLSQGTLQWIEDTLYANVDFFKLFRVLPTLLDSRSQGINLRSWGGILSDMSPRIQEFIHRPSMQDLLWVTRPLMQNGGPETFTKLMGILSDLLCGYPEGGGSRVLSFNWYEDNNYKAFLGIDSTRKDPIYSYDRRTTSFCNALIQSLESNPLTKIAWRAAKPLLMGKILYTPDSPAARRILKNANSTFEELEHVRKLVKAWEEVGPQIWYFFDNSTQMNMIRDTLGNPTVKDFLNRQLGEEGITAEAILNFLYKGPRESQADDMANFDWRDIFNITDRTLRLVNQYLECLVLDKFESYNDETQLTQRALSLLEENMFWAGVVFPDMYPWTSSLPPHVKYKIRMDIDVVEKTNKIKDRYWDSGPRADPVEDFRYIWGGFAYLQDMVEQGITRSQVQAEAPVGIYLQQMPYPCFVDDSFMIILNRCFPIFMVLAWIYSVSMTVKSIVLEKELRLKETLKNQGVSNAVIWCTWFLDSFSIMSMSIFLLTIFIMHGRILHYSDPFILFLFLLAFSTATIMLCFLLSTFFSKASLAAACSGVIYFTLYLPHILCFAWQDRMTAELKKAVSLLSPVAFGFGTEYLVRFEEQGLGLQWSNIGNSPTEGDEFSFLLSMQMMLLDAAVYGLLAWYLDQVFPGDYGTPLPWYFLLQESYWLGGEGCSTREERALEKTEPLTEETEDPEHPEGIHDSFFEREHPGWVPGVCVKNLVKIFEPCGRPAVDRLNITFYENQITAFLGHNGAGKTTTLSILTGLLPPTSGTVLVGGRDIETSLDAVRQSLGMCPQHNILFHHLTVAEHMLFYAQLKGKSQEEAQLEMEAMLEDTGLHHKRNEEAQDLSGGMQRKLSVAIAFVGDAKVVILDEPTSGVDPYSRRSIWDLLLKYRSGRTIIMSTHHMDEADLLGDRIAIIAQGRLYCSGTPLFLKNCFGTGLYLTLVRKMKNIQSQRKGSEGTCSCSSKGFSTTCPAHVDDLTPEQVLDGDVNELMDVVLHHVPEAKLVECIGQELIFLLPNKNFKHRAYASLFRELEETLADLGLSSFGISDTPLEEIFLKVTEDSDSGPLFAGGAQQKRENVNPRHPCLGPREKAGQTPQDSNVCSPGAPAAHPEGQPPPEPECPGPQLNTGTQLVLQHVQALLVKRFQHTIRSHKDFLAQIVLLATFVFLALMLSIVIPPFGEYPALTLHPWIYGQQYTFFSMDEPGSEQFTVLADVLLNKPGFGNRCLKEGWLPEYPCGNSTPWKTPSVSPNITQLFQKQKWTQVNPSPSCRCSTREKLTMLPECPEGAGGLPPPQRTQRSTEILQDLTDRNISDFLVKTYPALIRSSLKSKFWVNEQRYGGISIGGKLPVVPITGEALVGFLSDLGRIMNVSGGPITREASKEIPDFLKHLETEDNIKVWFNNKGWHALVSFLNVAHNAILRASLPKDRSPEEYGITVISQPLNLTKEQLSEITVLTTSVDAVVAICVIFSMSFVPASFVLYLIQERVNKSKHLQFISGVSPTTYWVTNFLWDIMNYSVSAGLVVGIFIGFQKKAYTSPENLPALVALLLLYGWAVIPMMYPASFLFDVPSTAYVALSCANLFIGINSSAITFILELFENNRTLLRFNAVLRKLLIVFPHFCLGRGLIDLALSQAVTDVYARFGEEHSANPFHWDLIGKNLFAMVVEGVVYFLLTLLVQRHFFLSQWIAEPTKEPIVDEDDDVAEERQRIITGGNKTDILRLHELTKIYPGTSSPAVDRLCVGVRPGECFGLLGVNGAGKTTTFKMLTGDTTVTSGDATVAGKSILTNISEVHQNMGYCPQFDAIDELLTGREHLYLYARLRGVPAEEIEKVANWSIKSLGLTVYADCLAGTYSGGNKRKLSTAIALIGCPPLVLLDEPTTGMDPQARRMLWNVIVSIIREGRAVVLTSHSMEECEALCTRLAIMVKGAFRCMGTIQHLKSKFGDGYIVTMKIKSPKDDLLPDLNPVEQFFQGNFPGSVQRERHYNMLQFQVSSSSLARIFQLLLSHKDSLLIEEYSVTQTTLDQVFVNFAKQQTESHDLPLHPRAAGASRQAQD
T2 sequence (O95255 whole entry): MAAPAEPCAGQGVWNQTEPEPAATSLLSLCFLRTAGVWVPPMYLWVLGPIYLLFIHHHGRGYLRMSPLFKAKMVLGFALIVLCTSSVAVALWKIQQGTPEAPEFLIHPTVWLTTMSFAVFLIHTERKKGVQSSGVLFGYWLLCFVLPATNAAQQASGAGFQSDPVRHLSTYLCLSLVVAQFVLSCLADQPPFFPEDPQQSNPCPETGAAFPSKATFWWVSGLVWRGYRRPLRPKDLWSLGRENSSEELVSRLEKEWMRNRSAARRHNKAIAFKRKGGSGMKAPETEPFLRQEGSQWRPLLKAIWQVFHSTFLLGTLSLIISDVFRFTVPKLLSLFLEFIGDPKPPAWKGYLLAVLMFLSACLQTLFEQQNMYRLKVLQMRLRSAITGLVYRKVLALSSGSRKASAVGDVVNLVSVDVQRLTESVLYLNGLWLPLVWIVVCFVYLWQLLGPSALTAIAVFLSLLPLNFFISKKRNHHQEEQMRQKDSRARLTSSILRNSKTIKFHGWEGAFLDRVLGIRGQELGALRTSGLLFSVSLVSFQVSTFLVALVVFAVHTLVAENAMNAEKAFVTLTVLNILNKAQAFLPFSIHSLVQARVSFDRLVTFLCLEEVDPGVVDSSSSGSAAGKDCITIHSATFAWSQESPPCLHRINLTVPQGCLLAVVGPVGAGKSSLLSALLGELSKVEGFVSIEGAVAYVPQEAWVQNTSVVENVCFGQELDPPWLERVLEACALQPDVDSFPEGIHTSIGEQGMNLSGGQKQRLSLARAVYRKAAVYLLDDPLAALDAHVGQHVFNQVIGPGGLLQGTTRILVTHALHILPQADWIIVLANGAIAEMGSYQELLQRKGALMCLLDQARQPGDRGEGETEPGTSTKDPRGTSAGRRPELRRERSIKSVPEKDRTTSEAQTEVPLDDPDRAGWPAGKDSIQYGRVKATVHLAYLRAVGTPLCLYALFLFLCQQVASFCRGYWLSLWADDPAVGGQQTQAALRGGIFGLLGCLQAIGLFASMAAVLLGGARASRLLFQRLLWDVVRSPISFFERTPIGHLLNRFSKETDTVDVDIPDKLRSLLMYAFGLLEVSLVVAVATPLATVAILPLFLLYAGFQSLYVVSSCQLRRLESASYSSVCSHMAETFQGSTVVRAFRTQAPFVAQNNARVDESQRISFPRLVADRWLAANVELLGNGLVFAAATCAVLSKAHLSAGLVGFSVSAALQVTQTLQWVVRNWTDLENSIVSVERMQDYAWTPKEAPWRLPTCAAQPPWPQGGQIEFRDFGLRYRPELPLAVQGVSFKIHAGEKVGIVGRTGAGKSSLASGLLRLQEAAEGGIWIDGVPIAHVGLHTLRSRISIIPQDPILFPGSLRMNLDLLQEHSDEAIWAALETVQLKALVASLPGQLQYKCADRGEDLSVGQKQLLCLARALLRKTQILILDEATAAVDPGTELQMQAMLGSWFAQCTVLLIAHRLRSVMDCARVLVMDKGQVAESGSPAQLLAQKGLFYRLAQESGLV

In the case of `Cc1cc(C2CC2)nc(C)c1Oc1nc(-c2cncc(C#N)c2)ccc1NS(C)(=O)=O` [Compound I-4], the EC50 at ABCA4 P1380L and on ABCC6 WT was less than 1000 nM each time.
Regarding `Cc1cc(C)c(Oc2nc(-c3cncc(C#N)c3)ccc2NS(C)(=O)=O)c(C)n1` [Compound I-5], the EC50 at ABCA4 P1380L and on ABCC6 WT was less than 1000 nM throughout.
On to `Cc1cc(C)c(Oc2nc(-c3ccc(C#N)nc3C)ccc2NS(C)(=O)=O)c(C)c1` [Compound I-6], for which the 50% effective concentration (EC50) at ABCA4 P1380L was 10000 to 25000 nM; at ABCC6 WT, less than 1000 nM.
Taken in the same sequence, the figures for `Cc1cc(C)c(Oc2nc(-c3ccc(C#N)nc3)ccc2NS(C)(=O)=O)c(C)n1` [Compound I-7] were less than 1000 nM and less than 1000 nM.
Taken in the same sequence, the figures for `Cc1cc(C)c(Oc2nc(-c3cnc(C#N)c(Cl)c3)ccc2NS(C)(=O)=O)c(C)n1` [Compound I-8] were less than 1000 nM and less than 1000 nM.
Taken in the same sequence, the figures for `Cc1cc(C)c(Oc2nc(-c3cncc(Cl)c3)ncc2NS(C)(=O)=O)c(C)c1` [Compound I-9] were more than 25000 nM and less than 1000 nM.
Turning to `Cc1cc(C)c(Oc2nc(-c3cncc(C#N)c3)ncc2NS(C)(=O)=O)c(C)c1` [Compound I-10], the EC50 on ABCA4 P1380L and on ABCC6 WT was less than 1000 nM in each case.
For `CNS(=O)(=O)c1ccc(-c2cncc(Cl)c2)nc1Oc1c(C)cc(C)cc1C` [Compound I-95], the EC50 at ABCA4 P1380L and at ABCC6 WT was less than 1000 nM each time.
Turning to `Cc1cc(C)c(Oc2nc(-c3cncc(Cl)c3)ccc2S(=O)(=O)N2CCCC2)c(C)c1` [Compound I-96], the values for the EC50 at ABCA4 P1380L and at ABCC6 WT were more than 25000 nM and 1000 to 10000 nM, respectively.
For the compound `Cc1cc(C)c(Oc2nc(-c3cncc(Cl)c3)ccc2S(=O)(=O)N(C)C)c(C)c1` [Compound I-97], the EC50 is more than 25000 nM at ABCA4 P1380L and less than 1000 nM at ABCC6 WT.
Regarding `Cc1cc(C)c(Oc2nc(-c3cncc(Cl)c3)ccc2S(=O)(=O)NC2CC2)c(C)c1` [Compound I-98], the EC50 at ABCA4 P1380L was more than 25000 nM; at ABCC6 WT, less than 1000 nM.
In the same order, the values of `Cc1cc(C)c(Oc2nc(-c3cncc(Cl)c3)ccc2S(=O)(=O)NC(C)(C)C)c(C)c1` [Compound I-99] are more than 25000 nM and 1000 to 10000 nM.
Take `Cc1cc(C)c(Oc2nc(-c3cncc(Cl)c3)ccc2S(N)(=O)=O)c(C)c1` [Compound I-100]: the figures for the half-maximal effective concentration (EC50) on ABCA4 P1380L and at ABCC6 WT were 10000 to 25000 nM and less than 1000 nM, respectively.
Taken in the same sequence, the figures for `Cc1cc(C)c(Oc2nc(-c3cccc(Cl)c3)ccc2S(=O)(=O)NC2CCOC2)c(C)c1` (stereo not shown) [Compound I-101] were 1000 to 10000 nM and 1000 to 10000 nM.
Turning to `Cc1cc(C)c(Oc2nc(-c3cccc(Cl)c3)ccc2S(N)(=O)=O)c(C)c1` [Compound I-102], the EC50 was less than 1000 nM on ABCA4 P1380L and 1000 to 10000 nM on ABCC6 WT.
In the same order, the values of `Cc1cc(C)c(Oc2nc(-c3cncc(Cl)c3)ccc2S(C)(=N)=O)c(C)c1` (stereo not shown) [Compound I-103] are 1000 to 10000 nM and less than 1000 nM.
In the same order, the values of `Cc1cc(C)c(Oc2nc(-c3cncc(Cl)c3)ccc2S(C)(=O)=O)c(C)c1` [Compound I-104] are 1000 to 10000 nM and 1000 to 10000 nM.
Taken in the same sequence, the figures for `Cc1cc(C(F)(F)F)nc(C2CC2)c1Oc1nc(-c2cncc(C#N)c2)ccc1S(=O)(=O)NC1CC1` [Compound I-133] were less than 1000 nM and less than 1000 nM.
`Cc1cc(C(F)F)nc(C2CC2)c1Oc1nc(-c2cncc(C#N)c2)ccc1N(C)S(=O)(=O)C1CC1` [Compound I-134]: the EC50 is more than 25000 nM on ABCA4 P1380L and 1000 to 10000 nM on ABCC6 WT.
In the same order, the values of `Cc1cc(C(F)F)nc(C2CC2)c1Oc1nc(-c2cncc(C#N)c2)ccc1N(C)S(C)(=O)=O` [Compound I-135] are more than 25000 nM and 1000 to 10000 nM.
Consider `Cc1cc(C)c(Oc2nc(-c3cncc(C#N)c3)ccc2N(C)S(=O)(=O)c2cccnc2)c(C2CC2)n1` [Compound I-136], for which the EC50 at ABCA4 P1380L and at ABCC6 WT was 1000 to 10000 nM throughout.
Turning to `Cc1cc(C(F)F)nc(C2CC2)c1Oc1nc(-c2cncc(C#N)c2)ccc1NS(C)(=O)=O` [Compound I-137], the EC50 at ABCA4 P1380L and at ABCC6 WT was less than 1000 nM each time.
Regarding `CS(=O)(=O)Nc1ccc(-c2cncc(C#N)c2)nc1Oc1c(C2CC2)nc(C(F)(F)F)nc1C1CC1` [Compound I-138], the EC50 at ABCA4 P1380L and at ABCC6 WT was less than 1000 nM throughout.
As to `Cc1cc(C(F)(F)F)nc(C2CC2)c1Oc1nc(-c2cncc(C#N)c2)ccc1N(C)S(=O)(=O)C1CC1` [Compound I-139], the EC50 at ABCA4 P1380L was more than 25000 nM; at ABCC6 WT, less than 1000 nM.
Taken in the same sequence, the figures for `Cc1cc(C(F)(F)F)nc(C2CC2)c1Oc1nc(-c2cncc(C#N)c2)ccc1NS(=O)(=O)C1CC1` [Compound I-140] were less than 1000 nM and less than 1000 nM.
Take `Cc1cc(C(F)(F)F)nc(C2CC2)c1Oc1nc(-c2cncc(C#N)c2)ccc1NS(=O)(=O)C(C)C` [Compound I-141]: the EC50 on ABCA4 P1380L and on ABCC6 WT was less than 1000 nM throughout.
`Cc1nc(C(F)(F)F)nc(C2CC2)c1Oc1nc(-c2cncc(C#N)c2)ccc1N(C)S(C)(=O)=O` [Compound I-142]: the values for the concentration for a half-maximal effect (EC50) at ABCA4 P1380L and on ABCC6 WT were more than 25000 nM and not below 25000 nM, respectively.
In the same order, the values of `Cc1nc(C2COC2)nc(C2CC2)c1Oc1nc(-c2cncc(C#N)c2)ccc1NS(C)(=O)=O` [Compound I-143] are less than 1000 nM and less than 1000 nM.
Taken in the same sequence, the figures for `Cc1nc(C(F)F)nc(C2CC2)c1Oc1nc(-c2cncc(C#N)c2)ccc1NS(C)(=O)=O` [Compound I-144] were less than 1000 nM and less than 1000 nM.
Taken in the same sequence, the figures for `Cc1nc(C(F)(F)F)nc(C2CC2)c1Oc1nc(-c2cncc(C#N)c2)ccc1NS(C)(=O)=O` [Compound I-145] were less than 1000 nM and less than 1000 nM.
Consider `Cc1cc(C2CC2)nc(C2CC2)c1Oc1nc(-c2cncc(C#N)c2)ccc1N(C)S(C)(=O)=O` [Compound I-146], for which the EC50 was 1000 to 10000 nM at ABCA4 P1380L and not below 25000 nM at ABCC6 WT.
In the same order, the values of `Cc1cc(C)c(Oc2nc(-c3cncc(C#N)c3)ccc2NS(=O)(=O)c2cccnc2)c(C2CC2)n1` [Compound I-147] are less than 1000 nM and less than 1000 nM.
With `CCS(=O)(=O)N(C)c1ccc(-c2cncc(C#N)c2)nc1Oc1c(C)cc(C(F)(F)F)nc1C1CC1` [Compound I-148], the EC50 on ABCA4 P1380L and at ABCC6 WT was less than 1000 nM throughout.
`Cc1nc(C(F)(F)F)nc(C2CC2)c1Oc1nc(-c2cncc(Cl)c2)ccc1N(C)S(C)(=O)=O` [Compound I-149]: the EC50 on ABCA4 P1380L was more than 25000 nM; on ABCC6 WT it was less than 25000 nM.
Taken in the same sequence, the figures for `Cc1nc(C2CC2)nc(C2CC2)c1Oc1nc(-c2cncc(C#N)c2)ccc1NS(C)(=O)=O` [Compound I-150] were less than 1000 nM and less than 1000 nM.
Taken in the same sequence, the figures for `Cc1nc(C(F)(F)F)nc(C2CC2)c1Oc1nc(-c2cncc(Cl)c2)ccc1NS(C)(=O)=O` [Compound I-151] were less than 1000 nM and less than 1000 nM.
Take `CCS(=O)(=O)Nc1ccc(-c2cncc(C#N)c2)nc1Oc1c(C)cc(C(F)(F)F)nc1C1CC1` [Compound I-152]: the EC50 on ABCA4 P1380L and on ABCC6 WT was less than 1000 nM throughout.
Take `Cc1cc(C(F)(F)F)nc(C2CC2)c1Oc1nc(-c2cncc(Cl)c2)ccc1N(C)S(C)(=O)=O` [Compound I-153]: the values for the EC50 on ABCA4 P1380L and at ABCC6 WT were more than 25000 nM and 1000 to 10000 nM, respectively.
